According to patent publication US12370159B2, “Compositions and methods of use of beta-hydroxy-beta-methylbutyrate (HMB) and probiotics” (priority 2016, dated 2025):

Tests used:
[1] = after HMB is fed; cited from earlier work
[2] = healthy young or old adults; cited from earlier work
[3] = HMB kinetics before and after two weeks of BC30 probiotic supplementation (Example 2)

For `CC(C)(O)CC(=O)O` [HMB, β-hydroxy-β-methylbutyric acid], the “Loss of HMB to urine” value [1] is listed as 20-50% and the Side effects [2] is listed as “no side effects”.

For “Calcium β-Hydroxy-β-Methylbutyrate [CaHMB]”, the “Probiotic-induced increase in peak plasma HMB levels, CaHMB compared with HMB-FA” value [3] was “larger”.
